Source: patent US10335420B2, “Nanoparticle-based tumor-targeted drug delivery” (The Scripps Research Institute, priority 2010, dated 2019)
Where two headings read alike, the source gives them in different places.

Assays:
4TO7 tumors = test: 4TO7 tumor growth in mice treated with Leg-NP-CDDO; format: in vivo, BALB/c mice; details: 8 i.v. injections
Experimental: In vivo tumor studies. 4TO7 (5×10^3) cells or MMTV-Neu (1×10^4) primary tumor cells were injected orthotopically into female BALB/c or FVB/NJ mice, respectively. NPs in 200 μl of PBS (about 1.36×10^13 particles) were administered i.v. and tumor dimensions measured using digital microcalipers. Tumor volume was calculated using the formula [(a^2×b)/2], where ‘a’ is the larger of two perpendicular diameters. For recurrence studies, primary tumors were surgically removed and mice re-challenged orthotopically in the contralateral mammary fat pad. Mice were vaccinated 3 times orally at 1 week intervals by gavage with attenuated salmonella typhimuirum (1×10^8 CFU per mouse) transduced with either pNeuTm (provided by Wei-Zen Wei, Karmanos Cancer Center, Detroit, Mich., USA) or empty vector.
Leg-NP-CDDO suppresses growth of murine breast tumors. To evaluate the in vivo effects of Leg-NP-CDDO, BALB/c mice were orthotopically challenged with about 5×10^3 4TO7 tumor cells and 4 days later, treated them with 8 i.v. injections of Leg-NP-CDDO or controls (FIG. 7A).

[1] = format: in vivo; details: 5 mg/kg doxorubicin i.v.
Experimental: The dose of doxorubicin for all groups was 5 mg/kg.
Female BALB/c mice were injected orthotopically with 4TO7 breast tumor cells. Tumors were allowed to establish and reach a size of approximately 500 mm^3 prior to treatment. […] Doxorubicin was administered at about 5 mg/kg in 200 μl of PBS for all groups; n=5 mice per group.

4TO7 orthotopic tumors = test: Doxorubicin biodistribution in tumor-bearing mice by fluorescence microscopy; format: in vivo; details: two i.v. injections, about 24 h after the last injection
Experimental: Doxorubicin was also loaded into RR-11a^− NPs (NP-Dox) as a control. […] Data represent means±s.e.m. The percentage of the drug uptake concentration was determined by comparing the MFI of RDZ-218, NP-Dox, and Free Dox-treated cells with that of serially diluted doxorubicin; see FIG. 2b. […] Data is shown relative to untreated cells (Control); n=3 wells per group. Data represent means±s.e.m. *p<0.05, **p<0.005. 4TO7 cells were injected into the inguinal mammary fat pad of female BALB/c mice. Tumors were allowed to establish for about 5 d, to a size of approximately 500 mm^3, after which mice were given two i.v. injections with RDZ-218, NP-Dox or Free Dox. Mice were sacrificed about 24 h after the last injection and tissues were isolated and immediately analyzed by fluorescence microscopy to detect distribution of doxorubicin; see FIG. 2d. Tissue sections were also stained with DAPI to visualize cell nuclei; n=2 mice per group; scale bars, 100 μm.

| SMILES | dose required for effective Stat3 inhibition (STAT-3) [nmol/L] | primary tumor growth (4TO7 tumors) | number of mice surviving, out of a total of 5 ([1]; after treatment 0) | number of mice surviving, out of a total of 5 ([1]; after treatment 1, 24-hour intervals) | doxorubicin fluorescence in tumors (4TO7 orthotopic tumors) |
| --- | --- | --- | --- | --- | --- |
| CC1(C)CC[C@]2(C(=O)n3ccnc3)CC[C@]3(C)[C@H](C(=O)C=C4[C@@]5(C)C=C(C#N)C(=O)C(C)(C)[C@@H]5CC[C@]43C)[C@@H]2C1 [CDDO-Im, 1-[2-cyano-3-,12-dioxooleana-1,9(11)-dien-28-oyl]imidazole] | 100 | markedly less effective |  |  |  |
| COc1cccc2c1C(=O)c1c(O)c3c(c(O)c1C2=O)C[C@@](O)(C(=O)CO)C[C@@H]3O[C@H]1C[C@H](N)[C@H](O)[C@H](C)O1 [Free Dox, doxorubicin] |  |  | 5/5 | 0/5 | strikingly reduced or punctate |
